Results on 17 molecules are retold here after ChEMBL document CHEMBL3351982, “Microwave-assisted synthesis and biological evaluation of 3,4-diaryl maleic anhydride/N-substituted maleimide derivatives as combretastatin A-4 analogues” (Bioorg Med Chem Lett, 2015).

As usually defined, the IC50 is the concentration that gives 50% inhibition.

Where only a bound is given, the exact number is not on record here.

Experiment [1] can be described thus: Cytotoxicity against human SGC7901 cells assessed as cell growth inhibition after 72 hrs by MTT assay. The class given is functional, cell-based. The conditions noted are these: SGC-7901, 72 h. A general note: Tetrazolium dyes change colour on reduction, which living cells bring about.
The test system of a further experiment is KB. The experiment can be described thus: Cytotoxicity against human KB cells assessed as cell growth inhibition after 72 hrs by MTT assay. It counts as functional, cell-based.
Experiment [2] is described as follows: Cytotoxicity against human HT1080 cells assessed as cell growth inhibition after 72 hrs by MTT assay. It counts as functional, cell-based. The conditions noted are these: HT-1080, 72 h.
The target of the next experiment is Tubulin (Bos taurus) (UniProt Q6B856+Q862L2+Q862F3). The experiment can be described thus: (§1) Inhibition of bovine brain tubulin polymerization.
Another experiment concerns the target Tubulin (Bos taurus, UniProt Q6B856+Q862L2+Q862F3). The description is as §1.

With `COc1ccc(C2=C(c3cc(OC)c(OC)c(OC)c3)C(=O)N(OC)C2=O)cc1`, the half-inhibitory concentration (IC50) (in experiment [1]; in the experiment on KB; in experiment [2]) was greater than 30 µM throughout.

As to `COc1ccc(/C=C\c2cc(OC)c(OC)c(OC)c2)cc1O` [COMBRETASTATIN A4], the IC50 in experiment [1] came to 0.028 µM; in experiment [2], 0.008 µM.

On to `COc1ccc(C2=C(c3cc(OC)c(OC)c(OC)c3)C(=O)N(C)C2=O)cc1O`, for which the figures for the half-inhibitory concentration (IC50) (in experiment [1]; in the experiment with KB; in experiment [2]) were 2.5 µM, 3 µM and 13.3 µM, respectively.

In the case of `COc1ccc(C2=C(c3cc(OC)c(OC)c(OC)c3)C(=O)N(OC)C2=O)cc1O`, the IC50 (in experiment [1]; with KB; in experiment [2]) was greater than 30 µM throughout.

Consider `COc1ccc(C2=C(c3cc(OC)c(OC)c(OC)c3)C(=O)N(OC)C2=O)cc1N`, for which the IC50 (in experiment [1]; with KB; in experiment [2]) was greater than 30 µM throughout.

In the case of `COc1cc(C2=C(c3ccc4ccccc4c3)C(=O)N(C)C2=O)cc(OC)c1OC`, the 50% inhibitory concentration (IC50) in experiment [1] was found to be 12.3 µM; in the experiment on KB it was 16.7 µM; in experiment [2], 22.5 µM.

For the molecule `COc1ccc(C2=C(c3cc(OC)c(OC)c(OC)c3)C(=O)OC2=O)cc1`, the IC50 in experiment [1] came to 13.2 µM; with KB it was 10.8 µM; in experiment [2], 16.5 µM.

Take `COc1cc(C2=C(c3ccc4ccccc4c3)C(=O)N(OC)C2=O)cc(OC)c1OC`: the IC50 (in experiment [1]; in the experiment on KB; in experiment [2]) was greater than 30 µM in each case.

For `COc1ccc(C2=C(c3cc(OC)c(OC)c(OC)c3)C(=O)N(C)C2=O)cc1`, the IC50 in experiment [1] turned out to be 12.3 µM; in the experiment with KB, 14.2 µM; in experiment [2], 15.6 µM.

As to `COc1ccc(C2=C(c3cc(OC)c(OC)c(OC)c3)C(=O)OC2=O)cc1O`, the concentration for half-maximal inhibition (IC50) was 27.9 µM in experiment [1], greater than 30 µM in the experiment on KB and greater than 30 µM in experiment [2].

In the case of `COc1ccc(C2=C(c3cc(OC)c(OC)c(OC)c3)C(=O)N(O)C2=O)cc1O`, the IC50 in experiment [1] stood at 4.5 µM; in the experiment with KB it was 6.7 µM; in experiment [2] it was 2.4 µM.

`COc1cc(C2=C(c3ccc4ccccc4c3)C(=O)N(O)C2=O)cc(OC)c1OC`: the half-inhibitory concentration (IC50) in experiment [1] stood at 16.5 µM; with KB, 10.1 µM; in experiment [2], 6.4 µM.

On to `COc1ccc(C2=C(c3cc(OC)c(OC)c(OC)c3)C(=O)N(O)C2=O)cc1`, for which the IC50 stood at 5.3 µM in experiment [1], 5.6 µM in the experiment with KB and 4.1 µM in experiment [2].

With `COc1ccc(C2=C(c3cc(OC)c(OC)c(OC)c3)C(=O)OC2=O)cc1N`, the half-maximal inhibitory concentration (IC50) in experiment [1] turned out to be 1.6 µM; with KB, 2.3 µM; in experiment [2] it was 2.4 µM.

Turning to `COc1ccc(C2=C(c3cc(OC)c(OC)c(OC)c3)C(=O)N(O)C2=O)cc1N`, the half-inhibitory concentration (IC50) in experiment [1] is 1.3 µM; at Tubulin, 3 µM; with KB it was 1.1 µM; in experiment [2] it was 0.65 µM. Further, the inhibition result at Tubulin (Bos taurus) is “Dose-dependent effect”.

For `COc1cc(C2=C(c3ccc4ccccc4c3)C(=O)OC2=O)cc(OC)c1OC`, the half-inhibitory concentration (IC50) (in experiment [1]; with KB; in experiment [2]) was greater than 30 µM throughout.

For `COc1ccc(C2=C(c3cc(OC)c(OC)c(OC)c3)C(=O)N(C)C2=O)cc1N`, the figures for the 50% inhibitory concentration (IC50) (in experiment [1]; in the experiment with KB; in experiment [2]) were 1.5 µM, 1.3 µM and 0.75 µM, respectively.
